Assay results published in patent publication US10363288B2, “Insulin mimotopes and methods of using the same” (THE REGENTS OF THE UNIVERSITY OF COLORADO, a body corporate, priority 2015, dated 2019).

Columns and labels:
[1] = test system: CD4 T cells; experiment: CFSE proliferation assay of CD4 T cells from PBMCs of established T1D subjects; assay type: cell-based, human
[2] = test system: NOD mouse; details: administered at low doses; cited from earlier work

Sequence: SHLVEALYLVCGEEG [B: 9-23 B22E, B:9-23 mimotope; B22 arginine to glutamic acid]
- proliferation of CD4 T cells (CFSE dilution) [1]: proliferation of CD4 T cells much more than the wild type peptide
- inducing tolerance and preventing diabetes onset [2]: completely preventing diabetes onset
